pIC50: −log10 of the molar value.
Tests used:
TcdB [1] = molecular target: T1, TcdB (Clostridioides difficile, UniProt P18177); format: biochemical, Clostridium difficile
Caco-2 cells = settings: MTT, TcdB 3.7 nM for 10 min
[2] = molecular target: C. difficile TcdA holotoxin (Clostridioides difficile, UniProt P16154); format: binding, Clostridium difficile
[3] = molecular target: toxin glucosyltransferase activity (Clostridioides difficile, UniProt P16154); format: biochemical, Clostridium difficile
Protocol: Cell Free Rac1 Glucosvlation Assay. Glucosyltransferase activity of TcdA and TcdA-SNO was measured by their ability to glucosylate Rho GTPase Rac1 in a cell-free assay. Caco-2 cell pellets were resuspended in glucosylation buffer (50 mM HEPES, pH 7.5, 100 mM KCl, 1 mM MnCl2 and 2 mM MgCl2) and lysed with a syringe (25G, 40 passes through the needle). After centrifugation (167,000×g, 3 min), the supernatant was used as a post-nuclear cell lysate. To perform the glucosylation assay, the cell lysates were incubated with TcdA or TcdA-SNO (final concentration of the toxins was 5 μg/ml) at 37° C. for 30 min. The reaction was terminated by heating at 100° C. for 5 min in SDS-sample buffer. To measure Rac1 glucosylation levels, lysates were separated on a 4-20% gradient SDS-PAGE gel and transferred onto a nitrocellulose membrane. An antibody that specifically recognizes the non-glucosylated form of Rac1 (clone 102, BD Bioscience) was used for detection.

TcdA [4] = molecular target: T2, TcdA (Clostridioides difficile, UniProt P16154); format: in vivo, Cd-1 mice
Protocol: TcdA-Exposure of Mouse Ileal Loops. Cd-1 mice (10 week old males; Charles River Labs) were fasted overnight. Ileal loops were ligated in anesthetized animals via laparotomy and injected with 0.15 ml of purified TcdA, TcdA-SNO or TcdA-NEM (10 μg) or buffer as described (Savidge et al., Gastroenterology 125:413-20 (2003); Oiu et al., Gastroenterology 111: 409-18 (1996)). […] Four hrs after TcdA administration, mice were euthanized and fluid secretion was determined as the loop weight ([…])-to-length (cm) ratio. Full thickness loops were frozen in liquid nitrogen or fixed in 10% formalin in PBS (pH 7.2) for 24 hours and embedded in paraffin using routine procedures. Histological severity of enteritis was evaluated by assessing (1) epithelial cell necrosis, (2) hemorrhagic congestion and edema of the mucosa, and (3) neutrophil margination and tissue infiltration (Savidge et al., Gastroenterology 125:413-20 (2003); Oiu et al., Gastroenterology 111: 409-18 (1996)).
Myeloperoxidase Assay. Neutrophil myeloperoxidase (MPO) activity is an indicator of tissue inflammation. Intestinal segments (100-250 mg) were homogenized in 1 ml HTAB buffer and centrifuged at 20,000×g for 10 min at 4° C. Pellets were resuspended in 1 ml HTAB buffer containing 1% hexadecyltrimethlammonium to negate pseudoperoxidase activity. MPO activity was measured in supernatants following 3 cycles of sonication, freezing and thawing. After centrifugation at 40,000×g for 15 min at 4° C., supernatants (10 μl) were mixed with 90 μl of potassium phosphate buffer containing 0.167 mg/ml O-dianiside dihydrochloride and 0.0005% hydrogen peroxide. Activity was measured every 2 minutes for 20 minutes at 450 nm.
Quantitative Cytokine mRNA Measurements. Total RNA was extracted from cells or frozen tissues, treated with 1 U DNAse I and reversed transcribed (Gene Amp RNA-PCR Kit). Real-time rtPCR reactions were run with SYBR Green PCR Master-Mix for 40 cycles on a Chromo4 detector (Bio-Rad Ltd) (94° C. for 2 min; 94° C. for 1 min; 60° C. for 1 min; 72QC for lmin; repeat step 2-to-4 for 40 cycles; 72° C. for 10 min). Primer sets were for human IL-8: (Forward 5′-[…]-3′ SEQ ID NO:2; Reverse 5′-[…]-3′ SEQ ID NO:3); murine TNFα (Forward 5′-[…]-3′ SEQ ID NO:4, Reverse 5′-[…] […]-3′ SEQ ID NO:5); murine […] (Forward 5′-TTGAC[…]-3′ SEQ ID NO:6, Reverse 5′-[…]-3′ SEQ ID NO:7). Samples were normalized against commercial GAPDH or 18S rRNA primers and probes (Applied Biosystems) and relative expression levels were calculated as previously described (Savidge et al., Gastroenterology 132:1344-58 (2007)).

C. difficile VPI 10463 = format: in vivo, C57BL/6 mice
Excerpt: Murine C. Difficile Infection Model. A conventional mouse model of antibiotic-induced C. difficile infection that closely resembles the spectrum of disease manifest in humans was used as described (Chen et al., Gastroenterology 135:1984-92 (2008)). Disease severity varies from fulminant with typical histopathologic features of C. difficile infection, to minimal diarrhea depending on challenge dose. 12 week-old C57BL/6 mice were pre-treated for three days with a mixture of antibiotics shown to disrupt the intestinal microflora (Chen et al., Gastroenterology 135:1984-92 (2008)). After two days, mice were injected with clindamycin and were challenged intragastrically with 10^6 C. difficile VPI 10463 vegetative cells the following day. […] Oral administration of vancomycin (50 mg/kg/day) was used as a positive control.

TcdB [5] = molecular target: T1, TcdB
TcdA [6] = molecular target: T2, TcdA; assay: cell-based
[7] = in vivo; cited from earlier work
deoxygenated hemoglobin = deoxygenated hemoglobin (Homo sapiens, UniProt P68871); format: binding

T2 sequence (P16154 whole entry, looked up): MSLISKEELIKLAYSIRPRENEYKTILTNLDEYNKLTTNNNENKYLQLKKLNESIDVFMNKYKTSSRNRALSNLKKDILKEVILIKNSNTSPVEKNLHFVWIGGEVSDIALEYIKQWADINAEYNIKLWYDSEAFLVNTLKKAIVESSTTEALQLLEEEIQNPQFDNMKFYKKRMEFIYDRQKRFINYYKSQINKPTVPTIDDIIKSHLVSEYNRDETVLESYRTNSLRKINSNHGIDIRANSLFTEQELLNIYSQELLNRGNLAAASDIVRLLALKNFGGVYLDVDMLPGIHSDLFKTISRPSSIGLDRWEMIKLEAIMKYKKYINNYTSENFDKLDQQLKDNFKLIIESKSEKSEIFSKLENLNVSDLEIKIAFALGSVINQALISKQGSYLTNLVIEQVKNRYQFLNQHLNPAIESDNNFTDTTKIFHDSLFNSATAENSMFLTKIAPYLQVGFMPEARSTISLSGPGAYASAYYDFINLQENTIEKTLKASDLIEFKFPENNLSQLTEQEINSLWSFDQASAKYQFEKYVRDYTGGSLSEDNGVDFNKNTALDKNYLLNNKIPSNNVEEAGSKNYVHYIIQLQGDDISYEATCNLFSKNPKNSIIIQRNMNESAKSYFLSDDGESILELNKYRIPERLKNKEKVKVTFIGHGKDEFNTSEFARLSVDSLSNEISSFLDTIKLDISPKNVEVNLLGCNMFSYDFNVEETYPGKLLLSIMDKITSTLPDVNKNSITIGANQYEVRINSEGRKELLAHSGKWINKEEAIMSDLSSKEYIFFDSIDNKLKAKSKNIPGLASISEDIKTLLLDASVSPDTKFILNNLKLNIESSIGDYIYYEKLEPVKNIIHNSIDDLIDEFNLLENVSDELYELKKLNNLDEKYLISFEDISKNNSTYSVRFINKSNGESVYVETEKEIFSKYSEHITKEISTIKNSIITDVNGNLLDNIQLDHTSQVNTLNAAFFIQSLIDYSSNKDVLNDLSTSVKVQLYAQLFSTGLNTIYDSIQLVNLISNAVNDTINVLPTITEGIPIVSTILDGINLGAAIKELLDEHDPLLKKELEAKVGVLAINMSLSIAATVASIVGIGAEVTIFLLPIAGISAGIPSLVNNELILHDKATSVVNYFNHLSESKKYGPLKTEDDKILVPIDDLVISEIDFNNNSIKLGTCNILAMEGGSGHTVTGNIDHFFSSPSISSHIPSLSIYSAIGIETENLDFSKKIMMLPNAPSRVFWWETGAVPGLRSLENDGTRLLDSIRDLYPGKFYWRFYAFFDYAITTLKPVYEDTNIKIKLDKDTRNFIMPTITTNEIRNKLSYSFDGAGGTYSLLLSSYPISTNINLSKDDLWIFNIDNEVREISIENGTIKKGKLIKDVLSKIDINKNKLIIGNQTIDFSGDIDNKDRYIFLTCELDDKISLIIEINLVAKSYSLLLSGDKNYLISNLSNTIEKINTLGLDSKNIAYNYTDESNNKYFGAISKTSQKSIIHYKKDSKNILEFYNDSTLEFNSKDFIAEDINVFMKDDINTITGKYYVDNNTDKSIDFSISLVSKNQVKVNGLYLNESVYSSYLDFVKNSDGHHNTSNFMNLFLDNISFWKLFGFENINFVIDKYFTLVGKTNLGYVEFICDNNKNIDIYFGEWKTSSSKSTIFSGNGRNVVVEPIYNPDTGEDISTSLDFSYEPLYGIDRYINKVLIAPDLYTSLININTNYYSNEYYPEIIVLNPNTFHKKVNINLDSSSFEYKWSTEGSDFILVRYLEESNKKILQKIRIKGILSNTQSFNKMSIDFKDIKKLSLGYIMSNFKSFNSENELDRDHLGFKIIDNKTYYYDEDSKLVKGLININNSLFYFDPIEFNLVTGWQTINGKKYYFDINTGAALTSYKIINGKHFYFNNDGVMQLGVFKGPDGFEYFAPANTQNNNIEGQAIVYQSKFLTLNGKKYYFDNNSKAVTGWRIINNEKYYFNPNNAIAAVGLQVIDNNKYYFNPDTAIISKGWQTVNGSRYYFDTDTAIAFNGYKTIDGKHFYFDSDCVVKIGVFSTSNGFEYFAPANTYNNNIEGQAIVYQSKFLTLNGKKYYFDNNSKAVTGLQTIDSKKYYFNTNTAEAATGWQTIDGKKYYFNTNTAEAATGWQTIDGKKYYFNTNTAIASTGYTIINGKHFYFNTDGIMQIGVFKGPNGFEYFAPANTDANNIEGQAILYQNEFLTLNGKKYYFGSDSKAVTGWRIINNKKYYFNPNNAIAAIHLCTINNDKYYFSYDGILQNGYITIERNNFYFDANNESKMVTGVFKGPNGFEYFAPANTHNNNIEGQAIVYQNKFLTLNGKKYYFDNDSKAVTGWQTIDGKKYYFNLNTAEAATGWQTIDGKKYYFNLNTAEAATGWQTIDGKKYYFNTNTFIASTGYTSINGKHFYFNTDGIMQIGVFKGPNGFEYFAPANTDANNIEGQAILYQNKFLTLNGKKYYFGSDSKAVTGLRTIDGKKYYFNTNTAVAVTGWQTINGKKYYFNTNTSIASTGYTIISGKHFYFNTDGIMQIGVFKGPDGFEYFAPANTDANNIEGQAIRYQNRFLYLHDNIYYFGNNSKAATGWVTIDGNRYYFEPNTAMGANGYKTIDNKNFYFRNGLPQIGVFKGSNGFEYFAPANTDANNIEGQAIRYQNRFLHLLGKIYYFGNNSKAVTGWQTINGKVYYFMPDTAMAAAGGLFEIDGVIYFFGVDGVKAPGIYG
T1 sequence (P18177 2-2366 limits assumed): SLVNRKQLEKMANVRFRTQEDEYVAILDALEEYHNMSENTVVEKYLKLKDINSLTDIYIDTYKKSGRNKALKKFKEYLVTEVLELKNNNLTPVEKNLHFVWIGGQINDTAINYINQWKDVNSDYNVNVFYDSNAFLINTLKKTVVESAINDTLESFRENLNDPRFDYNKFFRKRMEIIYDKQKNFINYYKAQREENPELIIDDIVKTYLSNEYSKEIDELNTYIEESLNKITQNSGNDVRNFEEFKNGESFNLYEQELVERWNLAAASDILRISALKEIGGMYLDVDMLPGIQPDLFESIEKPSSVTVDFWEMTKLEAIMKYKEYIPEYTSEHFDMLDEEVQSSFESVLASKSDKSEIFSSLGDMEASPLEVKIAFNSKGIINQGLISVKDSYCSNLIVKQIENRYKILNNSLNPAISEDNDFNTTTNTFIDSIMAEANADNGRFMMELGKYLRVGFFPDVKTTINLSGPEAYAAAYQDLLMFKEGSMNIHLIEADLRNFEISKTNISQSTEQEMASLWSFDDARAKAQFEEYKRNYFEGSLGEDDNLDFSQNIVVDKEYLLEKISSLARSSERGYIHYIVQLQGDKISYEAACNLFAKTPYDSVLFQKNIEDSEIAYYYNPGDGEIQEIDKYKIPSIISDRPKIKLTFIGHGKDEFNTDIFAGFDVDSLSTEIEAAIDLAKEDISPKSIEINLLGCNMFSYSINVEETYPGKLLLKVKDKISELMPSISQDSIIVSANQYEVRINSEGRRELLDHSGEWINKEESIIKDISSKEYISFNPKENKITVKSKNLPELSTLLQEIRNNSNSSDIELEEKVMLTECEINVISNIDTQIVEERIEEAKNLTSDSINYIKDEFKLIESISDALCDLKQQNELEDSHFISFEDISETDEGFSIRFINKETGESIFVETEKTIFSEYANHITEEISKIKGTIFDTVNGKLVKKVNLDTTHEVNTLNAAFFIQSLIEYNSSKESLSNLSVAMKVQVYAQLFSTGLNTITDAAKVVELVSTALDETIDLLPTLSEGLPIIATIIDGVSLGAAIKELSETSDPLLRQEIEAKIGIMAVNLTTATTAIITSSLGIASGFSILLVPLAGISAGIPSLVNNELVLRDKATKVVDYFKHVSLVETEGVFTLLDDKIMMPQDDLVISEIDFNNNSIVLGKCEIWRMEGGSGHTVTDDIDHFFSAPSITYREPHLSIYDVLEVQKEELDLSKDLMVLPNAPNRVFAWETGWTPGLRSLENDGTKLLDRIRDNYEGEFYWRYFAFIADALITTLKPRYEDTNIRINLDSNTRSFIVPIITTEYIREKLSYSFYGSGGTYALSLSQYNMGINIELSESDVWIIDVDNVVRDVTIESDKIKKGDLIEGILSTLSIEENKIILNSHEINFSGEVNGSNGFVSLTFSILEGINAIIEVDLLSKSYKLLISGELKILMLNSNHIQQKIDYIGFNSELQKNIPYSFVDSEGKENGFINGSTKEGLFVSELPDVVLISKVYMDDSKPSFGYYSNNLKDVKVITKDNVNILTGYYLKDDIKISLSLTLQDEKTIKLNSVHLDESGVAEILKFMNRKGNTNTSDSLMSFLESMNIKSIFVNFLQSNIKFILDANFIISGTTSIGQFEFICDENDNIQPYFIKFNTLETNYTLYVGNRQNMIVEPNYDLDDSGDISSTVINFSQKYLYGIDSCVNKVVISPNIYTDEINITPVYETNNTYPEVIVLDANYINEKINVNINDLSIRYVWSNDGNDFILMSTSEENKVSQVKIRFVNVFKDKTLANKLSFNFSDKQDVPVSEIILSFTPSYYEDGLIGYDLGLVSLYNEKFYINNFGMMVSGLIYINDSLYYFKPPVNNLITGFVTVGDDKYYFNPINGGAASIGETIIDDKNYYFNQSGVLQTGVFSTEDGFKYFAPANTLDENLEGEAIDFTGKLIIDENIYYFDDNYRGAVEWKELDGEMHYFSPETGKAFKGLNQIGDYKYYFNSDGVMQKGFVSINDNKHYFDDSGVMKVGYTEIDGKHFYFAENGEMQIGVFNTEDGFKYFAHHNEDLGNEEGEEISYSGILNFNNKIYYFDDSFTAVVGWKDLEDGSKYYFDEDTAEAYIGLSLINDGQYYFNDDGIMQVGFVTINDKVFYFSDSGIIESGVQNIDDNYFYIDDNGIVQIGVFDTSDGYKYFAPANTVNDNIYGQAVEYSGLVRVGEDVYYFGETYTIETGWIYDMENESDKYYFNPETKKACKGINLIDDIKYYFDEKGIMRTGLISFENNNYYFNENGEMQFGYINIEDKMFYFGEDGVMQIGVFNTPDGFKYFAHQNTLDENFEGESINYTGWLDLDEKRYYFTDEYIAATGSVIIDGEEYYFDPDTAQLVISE

O[C@H](CS)[C@H](O)CS (racemic) [DTT, dithiothreitol]
toxin autocleavage with agent alone (TcdB [1]): No significant toxin autocleavage

N[C@@H](CCC(=O)N[C@@H](CS)C(=O)NCC(=O)O)C(=O)O [GSH, glutathione]
effect on InsP6 induced TcdB autocleavage (TcdB [1]): potentiated | toxin autocleavage with agent alone (TcdB [1]): No significant toxin autocleavage

CCOC(=O)CNC(=O)[C@H](CS)NC(=O)CC[C@H](N)C(=O)O [GSH-EE, GSH-ethyl ester]
effect on cytoprotection of eNOS expressing Caco-2 cells against TcdB (Caco-2 cells): reversed

N[C@@H](CCC(=O)N[C@@H](CSN=O)C(=O)NCC(=O)O)C(=O)O [GSNO, S-nitrosoglutathione]
effect on InsP6 binding to the cysteine protease domain [2]: significantly inhibited | effect on InsP6 induced TcdB autocleavage (TcdB [1]): inhibited | glucosyltransferase activity in cell lysates [3]: did not inhibit toxin binding to Caco-2 cells or alter glucosyltransferase activity | TcdA induced fluid secretion in murine ileal loops (TcdA [4]; GSNO 10 mg/kg in 0.1 ml, TcdA 10 μg, 4 hrs): inhibits | TcdA induced TNF-α and IL-1γ gene transcripts (TcdA [4]; TcdA 10 μg, 4 hrs): significantly attenuated | toxin-induced disease activity (histological damage, inflammation, intestinal secretion) (TcdA [4]; co-injected with TcdA into ileal loops for 4 hrs): markedly reduced | survival (Kaplan-Meier) (C. difficile VPI 10463; oral gavage GSNO 10 mg/kg/day): survival benefit | IC50 of GSNO with inositolphosphate cofactor (TcdB [5]): low micromolar range | toxin binding to Caco-2 cells (C. difficile toxin): did not inhibit | pIC50 (TcdA [6]): 4.24 | tolerability [7]: well tolerated

O=P(O)(O)OC1C(OP(=O)(O)O)C(OP(=O)(O)O)C(OP(=O)(O)O)C(OP(=O)(O)O)C1OP(=O)(O)O (stereo not shown) [InsP6, inositol hexakisphosphate]
binding affinity (deoxygenated hemoglobin): > 1.6 nM/mg protein | effect of added InsP6 on GSNO inhibition of TNF-α and IL-1γ transcripts (TcdA [4]; InsP6 1 mM with GSNO): potentiated | effect of added InsP6 on GSNO protection against fluid secretion (TcdA [4]; InsP6 1 mM with GSNO 10 mg/kg): enhanced | effect of added InsP6 on survival benefit of GSNO (C. difficile VPI 10463; oral InsP6 0.25 mg/kg/day with GSNO 10 mg/kg/day): potentiated

COC(=O)[C@@H](N)CCCNC(=N)N[N+](=O)[O-] [L-NAME, N^G-nitro-L-arginine methyl ester]
effect on cytoprotection of eNOS expressing Caco-2 cells against TcdB (Caco-2 cells): reversed

(rac1)-1(3)-PP-(2,3,4,5,6)InsP5 [r-InsP7]
TcdB autocleavage activity (TcdB [1]): not significantly different

D-myo-5-PP-(1,2,3,4,6)InsP5 [m-InsP7]
TcdB autocleavage activity (TcdB [1]): not significantly different

— patent US9770500B2 (priority 2011, dated 2017)
